From PubChem BioAssay AID1259418 (Broad Institute, 2018)
“And” between values parts separate entries of the source, which are not always exact repeats. Equal entries are not always repeated. Results filed as inconclusive are left out. The source made the active and inactive calls.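 The calls were made as follows: active = fitted half-maximal concentration of signal decrease at or below twice the sample's top tested concentration; inconclusive = flat curve between -70 and -30 percent, or poor fit; inactive = flat within 30 percent, signal rise, or potency above limit.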

Target: T. gondii ME49Luc in IFN-y HeLa, luciferase, 72 h
Experiment: inhibitors of Toxoplasma growth in IFN-γ-primed HeLa – cell-based, ME49Luc, luciferase, 72 h, dose response (AID 1259418)

Q: `COCC(=O)N1[C@@H](C#N)[C@H](c2ccc(C#CCC3CCCC3)cc2)[C@@H]1CO` was tested. Which AC50 did it give?
A: 38.3 µM

Q: How did the AC50 turn out when `O=C(c1ccc2c(c1)OCO2)N1C[C@@H]2N[C@H](C1)C2c1ccc(/C=C/c2ccccc2)cc1` (stereo partly specified) was run?
A: 8.94 µM and 21.9 µM

Q: Which AC50 does the source give for `COc1cccc(-c2ccc3c(c2)[C@@H]2[C@@H](CCN2C(=O)c2ccccc2F)[C@H](CO)N3C)c1` here?
A: 14.4 µM and 10.9 µM

Q: `Cc1ccc(-c2coc(-c3ccc(NC(=O)Nc4ccc(Br)cc4)cc3)n2)cc1` was tested. Which AC50 did it give?
A: > 39 µM (inactive)

Q: For `CC(C)(C)c1ccc(S(=O)(=O)N2CCC[C@@H]2C(=O)NCCc2csc(-c3ccccc3)n2)cc1`, which AC50 is on record?
A: 4.48 µM

Q: `O=C(C[C@@H]1CC[C@@H]2[C@H](COC[C@@H](O)CN2Cc2ccc(Oc3ccccc3)cc2)O1)N1CCN(c2ccccc2)CC1` was tested. Which AC50 did it give?
A: 20.7 µM

Q: Which AC50 does the source give for `O=C1CN(S(=O)(=O)c2cccc(F)c2)C[C@@H]2[C@@H](c3ccc(C4=CCCC4)cc3)[C@H](CO)N12` here?
A: > 39 µM (inactive)

Q: For `CCC(=O)N1CCC2(CC1)Nc1ccc(Cl)cc1-n1cccc12`, which AC50 is on record?
A: 31 µM

Q: `CCOc1ccc(NC(=O)CN2CCC3(CC2)N=C(c2ccc(Cl)cc2)C(=O)N3)cc1` was tested. Which AC50 did it give?
A: > 39 µM (inactive)

Q: `COc1ccc(-c2nc(N(CCCN3CCOCC3)Cc3ccco3)c3ccccc3n2)cc1` was tested. Which AC50 did it give?
A: 9.51 µM

Q: For `O=C(NC1CCCC1)N1CCCCN2[C@H](CO)[C@H](c3ccc(-c4cccnc4)cc3)[C@H]2C1`, which AC50 is on record?
A: 24.1 µM

Q: With `O=C(c1ccc(F)cc1)N1CC(=O)N2[C@H](CO)[C@H](c3ccc(C#CCC4CCCC4)cc3)[C@@H]2C1` as the compound, how does the AC50 read?
A: 14.4 µM and 12 µM

Q: Which AC50 does the source give for `OC[C@H]1[C@H](c2ccc(C#Cc3ccccc3F)cc2)[C@@H]2CN(CC3CCOCC3)CCCCN12` here?
A: 9.56 µM

Q: For `Cc1ccc(S(=O)(=O)N2CSC[C@@H]2C(=O)NCCc2csc(-c3ccccc3)n2)cc1`, which AC50 is on record?
A: 12.9 µM

Q: For `CCCN1CCc2nc(SCc3nc(-c4ccccc4OC)oc3C)[nH]c(=O)c2C1`, which AC50 is on record?
A: > 39 µM (inactive)

Q: Which AC50 does the source give for `CCOC(=O)c1nn(Cc2ccccc2)c2c1CN(C(=O)CN1CC(c3ccccc3)CC1=O)CC2` (stereo unspecified) here?
A: > 39 µM (inactive)

Q: How did the AC50 turn out when `O=S(=O)(c1cccs1)N1CCC2(CC1)NCCN=C2NCc1ccc(C(F)(F)F)cc1` was run?
A: 23 µM

Q: With `COC(=O)C[C@H]1CC[C@@H]2[C@H](COc3ccc(NC(=O)Nc4cccc(C#N)c4)cc3C(=O)N2C)O1` as the compound, how does the AC50 read?
A: 19.5 µM

Q: With `CC(C)CNc1nc2c(cc1C(=O)NC(C)C)CCN(c1ccncn1)CC2` as the compound, how does the AC50 read?
A: 26.5 µM

Q: Which AC50 does the source give for `COc1ccc(N(Cc2nc(-c3ccc(C)cc3)oc2C)S(=O)(=O)c2ccccc2C)cc1` here?
A: 31.9 µM

Q: Which AC50 does the source give for `CC(C)CNC(=O)c1cc(-c2ccn(CC3CC3)n2)n2ccccc12` here?
A: 13.3 µM

Q: Which AC50 does the source give for `COc1ccccc1C(=O)N1CCC2(CC1)Nc1ccc(Cl)cc1-n1cccc12` here?
A: 33.9 µM

Q: `COc1cccc(C#Cc2ccc([C@@H]3[C@@H](C#N)N[C@@H]3CO)cc2)c1` was tested. Which AC50 did it give?
A: 38.4 µM

Q: With `CC(C)CC#Cc1ccc([C@H]2[C@@H](CO)N3C(=O)CN(C(=O)c4cccc(F)c4)C[C@H]23)cc1` as the compound, how does the AC50 read?
A: 15.5 µM

Q: Which AC50 does the source give for `C/C=C/c1ccc([C@H]2[C@@H](CO)N3CCCCN(S(=O)(=O)c4ccc(OC)cc4)C[C@@H]23)cc1` here?
A: 18.4 µM

Q: `Cc1cccc(NC(=O)COc2nc(C)nc3ccccc23)c1` was tested. Which AC50 did it give?
A: 32 µM

Q: For `COc1ccc(Cc2nnc(NC(=O)CC(C)C)s2)cc1`, which AC50 is on record?
A: 11.3 µM

Q: With `Clc1ccccc1CSc1nc(NCc2ccccc2)c2ccccc2n1` as the compound, how does the AC50 read?
A: > 39 µM (inactive)

Q: `Cc1ccc2c(c1C)-n1cccc1C1(CCN(C(=O)c3ccccc3F)CC1)N2` was tested. Which AC50 did it give?
A: > 39 µM (inactive)

Q: How did the AC50 turn out when `Cc1cc(C(=O)Nc2ccc3c(c2)C(=O)N(C)[C@@H]2CC[C@@H](CC(=O)NCc4ccc(-c5ccccc5)cc4)O[C@@H]2CO3)no1` was run?
A: 20.8 µM

Q: Which AC50 does the source give for `Cc1ccc(-c2coc(-c3ccc(NS(=O)(=O)c4ccc(Br)cc4)cc3)n2)c(C)c1` here?
A: 27.9 µM

Q: How did the AC50 turn out when `COc1ccc(C#Cc2ccc([C@H]3[C@@H](CO)N4C(=O)CN(C(=O)NC(C)C)C[C@@H]34)cc2)cc1` was run?
A: 22.3 µM

Q: For `COc1ccccc1NC(=O)Nc1ccc(-c2nc(-c3ccc(C)cc3C)co2)cc1`, which AC50 is on record?
A: 31.9 µM

Q: Which AC50 does the source give for `O=C(NCCc1csc(-c2ccccc2)n1)C1CCN(C(=O)c2ccc(F)c(Cl)c2)CC1` here?
A: 5.61 µM

Q: `CC[C@H]1CN2CCC1C[C@@H]2[C@H](O)c1ccnc2ccc(OC)cc12` (stereo partly specified) was tested. Which AC50 did it give?
A: 20 µM

Q: `O=C(Nc1ccccc1)N1CC2CN(Cc3ccc(C(F)(F)F)cc3)C2C1` (stereo unspecified) was tested. Which AC50 did it give?
A: 36.6 µM
